{"source": "paper PMC7536268", "about": "“Increased Antimicrobial Activity of Colistin in Combination With Gamithromycin Against Pasteurella multocida in a Neutropenic Murine Lung Infection Model” (Frontiers in Microbiology, 2020)", "key": {"P. multocida": {"system": "P. multocida", "parameters": "method as in Benoit et al., 2011", "settings": "P. multocida with erm(E); ref Benoit et al., 2011; cited from earlier work", "from_the_text": "Bovine respiratory disease (BRD) associated with Mannheimia haemolytica, P. multocida, and Histophilus somni is one of the most economically important diseases that occur in feedlots, and the global losses are estimated at over $3 billion per year ([Watts and Sweeney, 2010])."}, "[1]": {"settings": "cattle, SC 6 mg/kg; ref Steeve et al., 2011; cited from earlier work"}, "[2]": {"settings": "swine, SC 6 mg/kg; ref Wyns et al., 2014; cited from earlier work"}, "[3]": {"assay": "In vitro plasma protein binding, equilibrium dialysis", "format": "in vitro ADME", "settings": "72 h at 4°C", "experimental": "In vitro plasma protein-binding experiments for gamithromycin were conducted by adopting an equilibrium dialysis method for 72 h at 4°C. The corresponding unbound plasma PK parameters were obtained and used for the integration of PK and PD data."}, "[4]": {"system": "Pasteurella multocida strains", "assay": "MIC by broth microdilution (CLSI)", "format": "cell-based", "settings": "drug alone, broth microdilution, Mueller-Hinton broth, triplicate", "experimental": "The susceptibility of the selected P. multocida isolates and the quality control isolate (ATCC 25922) to colistin, gamithromycin, cefquinome, enrofloxacin, tilmicosin, tylosin tartrate, and florfenicol alone was determined using the microdilution method in broth (conducted in triplicate) according to the guiding principles of the CLSI. Based on the action mechanism of each drug, the antimicrobial activity of colistin or cefquinome (drug A) in combination with gamithromycin, enrofloxacin, tilmicosin, tylosin tartrate, or florfenicol (drug B) was determined with the checkerboard method, according to the minimal inhibitory concentration (MIC) of each drug. Briefly, 50 μL of MH II broth was added to each well, and 50 μL of the indicated concentration of colistin or cefquinome was added into the first well of each line. This was followed by multiproportion dilution. Next, 50-μL samples of different concentrations of gamithromycin or the other drugs mentioned above were added to the dilution medium, and a 100 μL inoculum with a cell density of ∼1 × 10^6 colony-forming units (CFU)/mL was added to each well. The plates were then incubated at 37°C for 24 h. According to the EUCAST definitive document E.Def 1.2 ([Mccullough, 2010]), the fractional inhibitory concentration (FIC) index for combined administrations was defined as the sum of the FIC of drug A and the FIC of drug B, where FIC is the MIC of the drug combined with other drugs, divided by the MIC of the drug alone."}, "[5]": {"system": "Pasteurella multocida strains (D18, T5, and WJ11)", "assay": "PK/PD relationship analysis (inhibitory Emax model, plasma AUC/MIC, target doses)", "format": "in vivo", "settings": "gamithromycin monotherapy; for Gamithromycin AUC/MIC required to reach 1-log10 kill / Gamithromycin AUC/MIC required to reach stasis: plasma AUC", "experimental": "The relationship between the in vivo antimicrobial activity of gamithromycin alone or in combination with colistin and the ratio of plasma PK parameters to the MIC of gamithromycin was assessed. An inhibitory effect Emax model from the Phoenix WinNonlin identification module was used for analysis based on the equation: E = Emax − (Emax−E0) × Ce/(Ce + EC50), where E is the antimicrobial effect (i.e., the change in bacterial burden in CFU per lung), Emax is the change in log10 CFU/lung for control groups, […], Ce is the PK/PD index under analysis, and EC50 is the Ce value at 50% of E0.\nIntegration of PK and PD data is important for clinical drug administration ([Toutain et al., 2002]). Herein, PK values in plasma were used to calculate the PK/PD index, which was integrated with changes in bacteria log10 CFU/lung. Antimicrobials that achieve significant PAE values are generally described as concentration-dependent ([Jacobs, 2004])."}, "[6]": {"parameters": "method as in Soon-Ee et al., 2015", "settings": "ref Soon-Ee et al., 2015; cited from earlier work"}, "[7]": {"system": "Pasteurella multocida (D18, T5, and WJ11)", "assay": "In vitro time-kill assays", "format": "cell-based", "settings": "colistin alone 0.25-1 mg/L, 24 h, all strains (D18, T5, WJ11), inoculum ~5 × 10^6 CFU/mL", "experimental": "In vitro time-kill assays were used to evaluate the effects of colistin alone and in combination with gamithromycin over 24 h. Three isolates of P. multocida (D18, T5, and WJ11) were tested. A P. multocida inoculum at ∼5 × 10^6 CFU/mL was treated with colistin alone at 0.25, 0.5, and 1 mg/L; gamithromycin alone at 0.125, 0.25, and 0.5 mg/L; and with colistin in combination with gamithromycin. At 0, 1, 2, 4, 6, 8, 12, and 24 h after incubation, 100-μL samples were taken from each tube for colony counting. A growth control without drug administration was included in all tests."}, "[8]": {"settings": "strain D18, lungs of mice, n = 4"}, "[9]": {"settings": "strain T5, lungs of mice, n = 4"}, "[10]": {"settings": "strain WJ11, lungs of mice, n = 4"}}, "note": "Like-named read-outs stand apart in the source and are kept apart here. Where a SMILES comes first, the peptide text is derived from it. Bridges are numbered along the chain shown (N, C = ends). [ ]: non-standard residue; d: D form. The star is where a group is joined. X1 = CC[C@H](C)CCCCC(=O)*; Dab = NCC[C@H](N)C(=O)O"}
{"smiles": "CCCN1C[C@H](C)[C@@H](O)[C@](C)(O)[C@@H](CC)OC(=O)[C@H](C)[C@@H](O[C@H]2C[C@@](C)(OC)[C@@H](O)[C@H](C)O2)[C@H](C)[C@@H](O[C@@H]2O[C@H](C)C[C@H](N(C)C)[C@H]2O)[C@](C)(O)C[C@H]1C", "note": "[Gamithromycin]", "values": [{"measurement": "MIC", "setting": "P. multocida", "value": "≥ 512", "unit": "µg/mL"}, {"measurement": "AUClast", "setting": "[1]", "value": 7.82, "unit": "mg⋅h/L"}, {"measurement": "AUClast", "setting": "[2]", "value": 3.48, "unit": "mg⋅h/L"}, {"measurement": "plasma protein binding extent", "setting": "[3]", "value": 13.83, "unit": "%"}, {"measurement": "MIC", "setting": "[4]; strain CVCC 444", "value": 0.5, "unit": "µg/mL"}, {"measurement": "MIC", "setting": "[4]; strain D18", "value": 0.5, "unit": "µg/mL"}, {"measurement": "MIC", "setting": "[4]; strain PmP2 (pig)", "value": 0.5, "unit": "µg/mL"}, {"measurement": "MIC", "setting": "[4]; strain PmP17 (pig)", "value": 0.5, "unit": "µg/mL"}, {"measurement": "MIC", "setting": "[4]; strain T5", "value": 0.5, "unit": "µg/mL"}, {"measurement": "MIC", "setting": "[4]; strain WJ11", "value": 0.5, "unit": "µg/mL"}, {"measurement": "MIC", "setting": "[4]; strain WN71", "value": 0.5, "unit": "µg/mL"}, {"measurement": "MIC", "setting": "[4]; strain WW81", "value": 0.5, "unit": "µg/mL"}, {"measurement": "MIC", "setting": "[4]; strain XX12", "value": 0.5, "unit": "µg/mL"}, {"measurement": "Gamithromycin dose required to reach 1-log10 kill", "setting": "[5]; Mean ± SD of D18, T5, WJ11, SD", "value": "67.11 ± 6.01", "unit": "mg/kg"}, {"measurement": "Gamithromycin dose required to reach stasis", "setting": "[5]; Mean ± SD of D18, T5, WJ11, SD", "value": "18.43 ± 3.10", "unit": "mg/kg"}, {"measurement": "Gamithromycin dose required to reach 1-log10 kill", "setting": "[5]; [8]", "value": 65.32, "unit": "mg/kg"}, {"measurement": "Gamithromycin dose required to reach stasis", "setting": "[5]; [8]", "value": 17.99, "unit": "mg/kg"}, {"measurement": "Gamithromycin AUC/MIC required to reach 1-log10 kill", "setting": "[5]; strain D18, n = 4", "value": 36.74}, {"measurement": "Gamithromycin AUC/MIC required to reach stasis", "setting": "[5]; strain D18, n = 4", "value": 10.33}, {"measurement": "Gamithromycin dose required to reach 1-log10 kill", "setting": "[5]; [9]", "value": 73.80, "unit": "mg/kg"}, {"measurement": "Gamithromycin dose required to reach stasis", "setting": "[5]; [9]", "value": 21.73, "unit": "mg/kg"}, {"measurement": "Gamithromycin AUC/MIC required to reach 1-log10 kill", "setting": "[5]; strain T5, n = 4", "value": 41.51}, {"measurement": "Gamithromycin AUC/MIC required to reach stasis", "setting": "[5]; strain T5, n = 4", "value": 12.47}, {"measurement": "Gamithromycin dose required to reach 1-log10 kill", "setting": "[5]; [10]", "value": 62.19, "unit": "mg/kg"}, {"measurement": "Gamithromycin dose required to reach stasis", "setting": "[5]; [10]", "value": 15.58, "unit": "mg/kg"}, {"measurement": "Gamithromycin AUC/MIC required to reach 1-log10 kill", "setting": "[5]; strain WJ11, n = 4", "value": 34.98}, {"measurement": "Gamithromycin AUC/MIC required to reach stasis", "setting": "[5]; strain WJ11, n = 4", "value": 8.11}]}
{"smiles": "CC[C@H](C)CCCCC(=O)N[C@@H](CCN)C(=O)N[C@H](C(=O)N[C@@H](CCN)C(=O)N[C@H]1CCNC(=O)[C@H]([C@@H](C)O)NC(=O)[C@H](CCN)NC(=O)[C@H](CCN)NC(=O)[C@H](CC(C)C)NC(=O)[C@@H](CC(C)C)NC(=O)[C@H](CCN)NC1=O)[C@@H](C)O", "note": "[Colistin] (X1-[Dab]T[Dab][Dab][Dab][dL]L[Dab][Dab]T; lactam 4-C)", "values": [{"measurement": "unbound extent in plasma", "setting": "[6]", "value": 8.4, "unit": "%"}, {"measurement": "time-kill outcome", "setting": "[7]", "value": "incapable of controlling bacterial growth"}]}
